# Experimental data published in patent US8987217B2, “Modified saponins for the treatment of fungal infections” (The General Hospital Corporation, priority 2010, dated 2015).
# Read-outs that look alike come from different tables or passages of the source.
# Legend:
# Type in all cases: cell-based
# C. albicans strains = assay: MIC by standard CLSI microdilution protocol M27-A
# Description: Using the standard Clinical and Laboratory Standards Institute (CLSI) procedure, the in vitro MIC of these two compounds was determined on the following C. albicans strains: DAY185 (the standard strain used throughout the screen), two fluconazole-resistant strains of C. albicans, and an echinocandin-resistant strain of C. albicans (Table 2).
# The minimal inhibitory concentration (MIC) was determined for strains DAY185, 98-145, 95-120 (White et al., Antimicrob Agents Chemother, 46:1704-1713 (2002)), and A15-10 (Garcia-Effron et al., Antimicrob Agents Chemother, 53:112-122 (2009)) spectrophotometrically using RPMI 1640 media (Mediatech, Inc.) following the standard CLSI microdilution protocol M27-A (National Committee for Clinical Laboratory Standards, Reference method for broth dilution susceptibility testing of yeasts. Tentative standard M27-A, Villanova, Pa. (1995)). Biofilm assays using identified compounds were conducted as previously described (Richard et al., Eukaryot Cell, 4:1493-1502 (2005)). The biofilm dry mass was determined by drying the silicone squares in a chemical hood, and weighing the resulting biofilm mass subtracting the previously weighed mass of the silicone square. Biofilm pictures were captured using a confocal laser microscope (TCS NT, Leica Microsystems). Cells were grown at 30° C., exposed to PS for 30 min, and then washed with PBS.
# C. albicans DAY185 [1] = assay: NaCl induced osmotic stress growth assay; details: 2 μg/mL A16; untreated control 1.25 M
# Description: Caspofungin (Merck) served as a known antifungal compound control. In vitro hyphal inhibition was assessed by incubation of DAY185 in RPMI 1640 media at 37° C. After 48 hours the cultures were visually inspected for hyphal formation by microscopy. The ability of the antifungal compound A16, at either 2 or 4 μg/mL, to induce osmotic stress was assessed using DAY185 grown in a 96 well microtiter plate containing RPMI 1640 media and NaCl, ranging in concentrations from 0-2 M in 0.25 M increments. The growth of the fungus was measured spectrophotometrically after 48 hours of growth at 35° C.
# The C. albicans cell wall and membrane are important for osmoregulation to maintain proper physiological conditions to carryout enzymatic reactions. Since saponins are able to disrupt the fungal cell membrane, external osmotic stress should also have detrimental effects on the fungal cell. C. albicans was grown in the presence of 2 μg/mL of compound A16 under various salt concentrations to assess the effect the saponin has on salt induced osmotic stress.
# C. albicans DAY185 [2] = assay: photodynamic inactivation (PDI) with photosensitizers; details: 4 μg/mL A16, 10 μM PEI-ce6
# Description: The PS used were Rose Bengal (RB, Sigma-Aldrich, St. Louis, Mo.) and chlorin(e6) (ce6, Frontier Scientific, Logan, Utah). PEI-ce6 was synthesized as a covalent conjugate between polyethylenimine (MW range 10,000-25,000, an average of one ce6 per chain) and ce6 as described previously (Tegos et al., Antimicrob Agents Chemother, 50:1402-1410 (2006)). Stock solutions were prepared in water at a concentration of 2 mM and stored for a maximum of 2 weeks in the dark at 4° C. before use. Spectra of stock solutions of PS diluted 140- to 280-fold in methanol were recorded. A noncoherent light source with interchangeable fiber bundles (LC122; LumaCare, London, United Kingdom) was employed. Thirty-nanometer-band-pass filters at ranges of 540±15 nm for RB, and 660±15 nm for ce6 and PEI-ce6 were used. […]
# Photodynamic inactivation utilizes a non-toxic dye, or photosensitizer (PS), which is able to generate reactive oxygen species, such as singlet oxygen and hydroxyl radical, in the presence of oxygen and low-intensity light of the correct wavelength to be absorbed by the PS ultimately producing toxic effects in microbial cells (Fuchs et al., Antimicrob Agents Chemother, 51:2929-2936 (2007)). […] The survival fraction and uptake (molecules/cell) of C. albicans was determined for PDI mediated by the 3 different PSs with or without A16 pre-incubation for various time periods ranging between 1-24 hours. […]
compound,measurement,setting,value
"CC1CC[C@@]2(OC1)O[C@H]1CC3C4C[C@@H](O)C5C[C@@H](O[C@@H]6O[C@H](CO)[C@H](O[C@@H]7O[C@H](CO)[C@@H](O)[C@H](O[C@@H]8OC[C@@H](O)[C@H](O)[C@H]8O)[C@H]7O[C@@H]7O[C@H](CO)[C@@H](O)[C@H](O)[C@H]7O)[C@H](O)[C@H]6O)[C@H](O)C[C@]5(C)C4CC[C@]3(C)[C@H]1[C@@H]2C (some centres unmarked) [A16, Aginoside]",MIC,C. albicans strains,16 µg/mL
same,MIC,C. albicans strains; C. albicans DAY185,16 µg/mL
same,MIC,C. albicans strains; echinocandin-resistant strain A15,16 µg/mL
same,NaCl concentration at which the fungus was unable to grow,C. albicans DAY185 [1],0.5 M
same,killing by PEI-ce6 mediated PDI after pre-incubation with A16,C. albicans DAY185 [2],does not change dramatically
